Data published in PMC11840605, “Crystallographic and Thermodynamic Evidence of Negative Coupling in the Flavin-Dependent Tryptophan Halogenases AbeH and BorH” (ACS Omega, 2025).

Key:
AbeH [1] = molecular target: T1, AbeH (uncultured bacterium, UniProt F6LWA5); experiment: FAD fluorescence quenching titration with AbeH; type: binding, uncultured soil actinomycetes
Experimental: Quenching of FAD fluorescence quenching upon binding to AbeH was measured in the absence and presence of Trp in 20 mM Tris-HCl pH 8.0 and 100 mM NaCl using a Quantmaster 40 fluorimeter (Photon Technologies International). Trp and FAD solutions were prepared in 20 mM Tris-HCl pH 8, and concentrations were determined by absorbance at 280 and 450 nm, respectively. FAD fluorescence was measured using excitation at 450 nm (4 nm slit opening) and emission set at 525 nm (6 nm slit opening) using a fluorescence cuvette to collect 50 scans, which were averaged later during data processing in Microsoft Excel. […] Raw fluorescence intensities were corrected for the buffer, Trp, and AbeH background contributions. Quenched fluorescence intensity was plotted vs AbeH concentration and fit to eq 1 using GraphPad Prism 8.0 by nonlinear regression analysis. In eq 1, F = fractional saturation, ΔF = fluorescence quenching upon AbeH/FAD complex formation (calculated from the difference of FAD fluorescence intensity at different AbeH concentration), ΔFmax = maximum fluorescence change obtained from fit, [AbeHFAD] = FAD-bound AbeH, [AbeH]T = Total AbeH concentration, [FAD]T = Total FAD concentration, KD = equilibrium dissociation constant. […]
A. Fluorescence quenching observed from binding of Apo-AbeH ([…]) to […] FAD; […]

BorH = BorH (uncultured bacterium, UniProt M9QSI0); details: previously shown; cited from earlier work
AbeH [2] = molecular target: T1, AbeH; experiment: In vitro halogenation of Trp by AbeH, 1 h reaction, RP-HPLC/MS; type: biochemical, uncultured soil actinomycetes
Experimental: In vitro halogenation reactions contained 7 μM AbeH, 13 μM holo-AbeF (∼20% saturated with FAD), 2.5 mM NADH, 0.5 mM Trp, 50 mM NaCl or NaBr in 10 mM Tris-HCl pH 8.2 in a final volume of 100 μL. Reactions were initiated by addition of NADH and incubated with 200 rpm shaking at 37 °C for 1 h. Reactions were stopped by heating to 95 °C for 10 min followed by centrifugation at 10,000g for 5 min. Reaction mixtures were analyzed by RP-HPLC using a Kromasil C18 RP-analytical column (100 Å pore size, 4.6 × 250 mm) mounted on a Waters 2695 HPLC. Separation used a 14 min gradient from 5% B to 100% B (Solvent A = H2O/CH3CN 95:5, 0.1% TFA; Solvent B = H2O/CH3CN 5/95, 0.1% TFA) with flow rate 0.6 mL/min. Trp, 5-Cl-Trp, and 5-Br-Trp peaks were monitored with absorbance at 280 nm and retention times and yields were analyzed with using retention times and peak areas from standard curves of authentic standards of Trp (ACROS Organics), 5-Cl-Trp (Santa Cruz Biotechnology) and 5-Br-Trp (Santa Cruz Biotechnology). RP-HPLC purified 5-Cl-Trp and 5-Br-Trp peaks from in vitro halogenation reactions were analyzed on a Waters SYNAPT HDMS mass spectrometer using positive ion-mode ESI-MS with leucine enkephalin as internal standard.
Figure S2: AbeH chlorinates and brominates Trp in vitro.
In vitro halogenation reactions were performed with […], […], 2.5 mM NADH, 50 mM NaCl or NaBr in 10 mM Tris-HCl pH 8.2 at 37 °C shaking at 200 rpm with final volume of […]. Standards and reactions were analyzed on a Kromasil C18 column (100 Å pore size, 4.6 x 250 mm) mounted on a Waters HPLC using a 14 min gradient from 5% -100% B (Solvent A:5% CH3CN+0.1% TFA; Solvent B:95% CH3CN+0.1% TFA) with flow rate 0.6 mL/min using 90 µL injections. Baseline subtracted peak integration was performed on Empower software (Waters). (A) Trp standard (tR = 10.3 min). (B) 5-Cl-Trp standard (tR =11.3 min). (C) 5-Br-Trp standard (tR = 11.4 min). (D) 60 min AbeH in vitro chlorination reaction of 0.5 mM Trp (tR = 11.3 min, 100% conversion to 5-Cl-Trp). […]

T1 sequence (F6LWA5 entry or part of it): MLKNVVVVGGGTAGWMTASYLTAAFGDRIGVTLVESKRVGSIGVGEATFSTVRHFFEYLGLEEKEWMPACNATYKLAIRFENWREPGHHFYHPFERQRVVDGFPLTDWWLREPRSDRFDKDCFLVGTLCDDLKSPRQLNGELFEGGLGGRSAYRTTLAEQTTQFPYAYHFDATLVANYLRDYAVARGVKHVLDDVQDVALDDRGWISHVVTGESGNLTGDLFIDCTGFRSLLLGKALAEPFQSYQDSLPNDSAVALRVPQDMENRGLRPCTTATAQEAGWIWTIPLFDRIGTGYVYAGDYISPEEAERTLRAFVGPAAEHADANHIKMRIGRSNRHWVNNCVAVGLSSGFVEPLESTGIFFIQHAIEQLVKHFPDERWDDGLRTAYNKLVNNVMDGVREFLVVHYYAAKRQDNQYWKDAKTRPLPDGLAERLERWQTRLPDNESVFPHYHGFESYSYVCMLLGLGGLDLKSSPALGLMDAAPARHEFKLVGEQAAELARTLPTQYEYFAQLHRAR
BorH, sequence (M9QSI0 1-529): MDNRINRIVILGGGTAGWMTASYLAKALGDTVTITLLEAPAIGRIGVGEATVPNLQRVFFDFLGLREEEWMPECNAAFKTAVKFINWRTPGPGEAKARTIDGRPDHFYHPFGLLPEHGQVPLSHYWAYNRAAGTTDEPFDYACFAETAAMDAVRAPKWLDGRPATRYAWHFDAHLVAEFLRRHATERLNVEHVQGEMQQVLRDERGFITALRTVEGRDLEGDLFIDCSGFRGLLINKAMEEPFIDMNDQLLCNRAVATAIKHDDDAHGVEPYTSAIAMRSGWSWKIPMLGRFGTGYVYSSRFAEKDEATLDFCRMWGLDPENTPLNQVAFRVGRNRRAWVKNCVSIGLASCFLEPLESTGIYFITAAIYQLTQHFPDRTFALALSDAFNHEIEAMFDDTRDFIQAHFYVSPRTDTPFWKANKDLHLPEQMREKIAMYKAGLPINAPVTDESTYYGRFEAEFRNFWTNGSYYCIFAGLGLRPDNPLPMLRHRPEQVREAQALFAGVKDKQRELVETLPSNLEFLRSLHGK

Cc1cc2nc3c(=O)[nH]c(=O)nc-3n(C[C@H](O)[C@H](O)[C@H](O)COP(=O)(O)OP(=O)(O)OC[C@H]3O[C@@H](n4cnc5c(N)ncnc54)[C@H](O)[C@@H]3O)c2cc1C [FAD]
Kd (AbeH [1]): 1600 ± 400 nM

N[C@@H](Cc1c[nH]c2ccccc12)C(=O)O [Tryptophan, L-tryptophan]
Halogenation of the substrate by BorH, in words (BorH): brominate and chlorinate | Conversion to 5-Br-Trp (AbeH [2]; 60 min AbeH bromination reaction of 0.5 mM Trp, 50 mM NaBr): ~ 80% | Conversion to 5-Cl-Trp (AbeH [2]; 60 min AbeH chlorination reaction of 0.5 mM Trp, 50 mM NaCl): 100% | Product formation by AbeH when NaCl was replaced with NaI (AbeH [2]; NaI): No product peak was observed
